Assay results: patent US20260027116A1, “Methods of Treating Chronic Graft-Versus-Host Disease Following Allogeneic Hematopoietic Stem Cell Transplantation” (Kadmon Corporation, LLC, priority 2022, published 2026)

System: patients with cGVHD
Details: Cohort 2 200 mg BID
Protocol: All responses were assessed by the investigators.
Reported Adverse Events. […] All-cause mortality data collected during the study were assessed for all enrolled participants. Disease progression related death was not reported as AE.
Number of Participants With Treatment-emergent Adverse Events (TEAEs), and Treatment-emergent Serious Adverse Events (TESAEs). […] TEAEs included both SAEs and non-SAEs. […] Analysis was performed on safety population which included all participants who received at least 1 dose of study medication.

CC(C)NC(=O)COc1cccc(-c2nc(Nc3ccc4[nH]ncc4c3)c3ccccc3n2)c1 [Belumosudil, 2-{3-[4-(1H-indazol-5-ylamino)-2-quinazolinyl]phenoxy}-N-(propan-2-yl) acetamide]
Bronchoscopy: # Events: 0 | Bronchoscopy: Affected/At Risk (%): 0/16 (0%) | Catheter site haemorrhage: # Events: 0 | Catheter site haemorrhage: Affected/At Risk (%): 0/16 (0%) | Chills: # Events: 1 | Chills: Affected/At Risk (%): 1/16 (6.25%) | Chronic kidney disease: # Events: 0 | Chronic kidney disease: Affected/At Risk (%): 0/16 (0%) | Conjunctival haemorrhage: # Events: 1 | Conjunctival haemorrhage: Affected/At Risk (%): 1/16 (6.25%) | Conjunctivitis: # Events: 1 | Conjunctivitis: Affected/At Risk (%): 1/16 (6.25%) | Constipation: # Events: 1 | Constipation: Affected/At Risk (%): 1/16 (6.25%) | Contrast media allergy: # Events: 2 | Contrast media allergy: Affected/At Risk (%): 2/16 (12.5%) | Contusion: # Events: 2 | Contusion: Affected/At Risk (%): 2/16 (12.5%) | Corneal abrasion: # Events: 0 | Corneal abrasion: Affected/At Risk (%): 0/16 (0%) | Corneal infection: # Events: 2 | Corneal infection: Affected/At Risk (%): 1/16 (6.25%) | Cough: # Events: 5 | Cough: Affected/At Risk (%): 4/16 (25%) | Death, No. (%): 0 | Decreased appetite: # Events: 2 | Decreased appetite: Affected/At Risk (%): 2/16 (12.5%) | Dehydration: # Events: 4 | Dehydration: Affected/At Risk (%): 3/16 (18.75%) | Depression: # Events: 4 | Depression: Affected/At Risk (%): 4/16 (25%) | Diarrhoea: # Events: 10 | Diarrhoea: Affected/At Risk (%): 5/16 (31.25%) | Dizziness: # Events: 4 | Dizziness: Affected/At Risk (%): 1/16 (6.25%) | Drug eruption: # Events: 1 | Drug eruption: Affected/At Risk (%): 1/16 (6.25%) | Drug-related AE, No. (%): 8 (50) | Drug-related SAE, No. (%): 0 | Dry eye: # Events: 4 | Dry eye: Affected/At Risk (%): 4/16 (25%) | Dry skin: # Events: 0 | Dry skin: Affected/At Risk (%): 0/16 (0%) | Dyspepsia: # Events: 2 | Dyspepsia: Affected/At Risk (%): 2/16 (12.5%) | Dysphagia: # Events: 4 | Dysphagia: Affected/At Risk (%): 3/16 (18.75%) | Dyspnoea exertional: # Events: 0 | Dyspnoea exertional: Affected/At Risk (%): 0/16 (0%) | Dyspnoea: # Events: 7 | Dyspnoea: Affected/At Risk (%): 5/16 (31.25%) | Embolism: # Events: 0 | Embolism: Affected/At Risk (%): 0/16 (0%) | Enamel anomaly: # Events: 1 | Enamel anomaly: Affected/At Risk (%): 1/16 (6.25%) | Epidural lipomatosis: # Events: 0 | Epidural lipomatosis: Affected/At Risk (%): 0/16 (0%) | Epstein-Barr virus infection: # Events: 0 | Epstein-Barr virus infection: Affected/At Risk (%): 0/16 (0%) | Erectile dysfunction: # Events: 0 | Erectile dysfunction: Affected/At Risk (%): 0/16 (0%) | Eye irritation: # Events: 0 | Eye irritation: Affected/At Risk (%): 0/16 (0%) | Eye pain: # Events: 4 | Eye pain: Affected/At Risk (%): 2/16 (12.5%) | Eye pruritus: # Events: 1 | Eye pruritus: Affected/At Risk (%): 1/16 (6.25%) | Fall: # Events: 1 | Fall: Affected/At Risk (%): 1/16 (6.25%) | Fatigue: # Events: 7 | Fatigue: Affected/At Risk (%): 3/16 (18.75%) | Flatulence: # Events: 2 | Flatulence: Affected/At Risk (%): 1/16 (6.25%) | Flushing: # Events: 1 | Flushing: Affected/At Risk (%): 1/16 (6.25%) | Fungal infection: # Events: 0 | Fungal infection: Affected/At Risk (%): 0/16 (0%) | Gamma-glutamyltransferase increased: # Events: 4 | Gamma-glutamyltransferase increased: Affected/At Risk (%): 4/16 (25%) | Gastric ulcer: # Events: 1 | Gastric ulcer: Affected/At Risk (%): 1/16 (6.25%) | Gastrooesophageal reflux disease: # Events: 1 | Gastrooesophageal reflux disease: Affected/At Risk (%): 1/16 (6.25%) | Generalised oedema: # Events: 0 | Generalised oedema: Affected/At Risk (%): 0/16 (0%) | Genital infection fungal: # Events: 1 | Genital infection fungal: Affected/At Risk (%): 1/16 (6.25%) | Glaucoma: # Events: 1 | Glucose urine present: # Events: 0 | Glucose urine present: Affected/At Risk (%): 0/16 (0%) | Grade ≥3 AE, No. (%): 10 (63) | Grade ≥3 ALT/AST increased, No. (%): 2 (13) | Grade ≥3 Anemia, No. (%): 1 (6) | Grade ≥3 Dyspnea, No. (%): 2 (13) | Grade ≥3 Hyperglycemia, No. (%): 0 | Grade ≥3 Hypoxia, No. (%): 1 (6) | Grade ≥3 Lung infection or pneumonia, No. (%): 2 (13) | Graft versus host disease in gastrointestinal tract: # Events: 0 | Graft versus host disease in gastrointestinal tract: Affected/At Risk (%): 0/16 (0%) | Gynaecomastia: # Events: 1 | Gynaecomastia: Affected/At Risk (%): 1/16 (6.25%) | Haematuria: # Events: 1 | Haematuria: Affected/At Risk (%): 1/16 (6.25%) | Hair growth abnormal: # Events: 0 | Hair growth abnormal: Affected/At Risk (%): 0/16 (0%) | Headache: # Events: 3 | Headache: Affected/At Risk (%): 3/16 (18.75%) | Hodgkin's disease recurrent: # Events: 0 | Hodgkin's disease recurrent: Affected/At Risk (%): 0/16 (0%) | Hordeolum: # Events: 0 | Hordeolum: Affected/At Risk (%): 0/16 (0%) | Hot flush: # Events: 0 | Hot flush: Affected/At Risk (%): 0/16 (0%) | Hyperglycemia: # Events: 0 | Hyperglycemia: Affected/At Risk (%): 0/16 (0%) | Hyperhidrosis: # Events: 1 | Hyperhidrosis: Affected/At Risk (%): 1/16 (6.25%) | Hyperkalaemia: # Events: 2 | Hyperkalaemia: Affected/At Risk (%): 2/16 (12.5%) | Hypertension: # Events: 5 | Hypertension: Affected/At Risk (%): 2/16 (12.5%) | Hyperthyroidism: # Events: 1 | Hyperthyroidism: Affected/At Risk (%): 1/16 (6.25%) | Hypertriglyceridaemia: # Events: 1 | Hypertriglyceridaemia: Affected/At Risk (%): 1/16 (6.25%) | Hyperuricaemia: # Events: 2 | Hyperuricaemia: Affected/At Risk (%): 1/16 (6.25%) | Hypoaesthesia: # Events: 0 | Hypoaesthesia: Affected/At Risk (%): 0/16 (0%) | Hypocalcaemia: # Events: 4 | Hypocalcaemia: Affected/At Risk (%): 1/16 (6.25%) | Hypogonadism: # Events: 0 | Hypogonadism: Affected/At Risk (%): 0/16 (0%) | Hypokalaemia: # Events: 3 | Hypokalaemia: Affected/At Risk (%): 2/16 (12.5%) | Hypomagnesaemia: # Events: 1 | Hypomagnesaemia: Affected/At Risk (%): 1/16 (6.25%) | Hyponatraemia: # Events: 0 | Hyponatraemia: Affected/At Risk (%): 0/16 (0%) | Hypophosphataemia: # Events: 1 | Hypophosphataemia: Affected/At Risk (%): 1/16 (6.25%) | Hypothermia: # Events: 1 | Hypothermia: Affected/At Risk (%): 1/16 (6.25%) | Hypothyroidism: # Events: 2 | Hypothyroidism: Affected/At Risk (%): 1/16 (6.25%) | Hypoxia: # Events: 5 | Hypoxia: Affected/At Risk (%): 2/16 (12.5%) | Impaired healing: # Events: 0 | Impaired healing: Affected/At Risk (%): 0/16 (0%) | Influenza like illness: # Events: 2 | Influenza like illness: Affected/At Risk (%): 1/16 (6.25%) | Influenza: # Events: 2 | Influenza: Affected/At Risk (%): 1/16 (6.25%) | Insomnia: # Events: 0 | Insomnia: Affected/At Risk (%): 0/16 (0%) | Irritability: # Events: 0 | Irritability: Affected/At Risk (%): 0/16 (0%) | Joint range of motion decreased: # Events: 1 | Joint range of motion decreased: Affected/At Risk (%): 1/16 (6.25%) | Lacrimation increased: # Events: 1 | Lacrimation increased: Affected/At Risk (%): 1/16 (6.25%) | Leukaemia recurrent: # Events: 0 | Leukaemia recurrent: Affected/At Risk (%): 0/16 (0%) | Leukocytosis: # Events: 0 | Leukocytosis: Affected/At Risk (%): 0/16 (0%) | Ligament sprain: # Events: 0 | Ligament sprain: Affected/At Risk (%): 0/16 (0%) | Limb injury: # Events: 0 | Limb injury: Affected/At Risk (%): 0/16 (0%) | Macular degeneration: # Events: 1
